Measured values as given in patent US20180346988A1, “ZNF532 FOR DIAGNOSIS AND TREATMENT OF CANCER” (THE BRIGHAM AND WOMEN'S HOSPITAL, INC., priority 2015, published 2018).

Columns and labels:
Format in all cases: cell-based, human
PVT1 RNA = experiment: RNA-seq at the MYC locus (PVT1 lncRNA) in 24335 cells; conditions: JQ1 administered for 4 h prior to RNA collection
Experimental: (FIG. 11A) Localization of ZNF532-NUT and effects on transcription at the MYC locus based on ChIP-seq and RNA-seq. JQ1 was administered for 4 h prior to RNA collection.
Morphologic differentiation is evidenced by accumulation of abundant cytoplasm, enlargement of nuclei and cytoplasm, and formation of cohesive spheres. […] It has been shown that an important function of ZNF532-NUT is to maintain expression of MYC. […] One such megadomain occupies a region proximal to MYC (FIG. 11A). […] Consistent with its role in MYC upregulation, knockdown of ZNF532-NUT leads to decreased MYC protein levels (FIG. 11B).

ZNF532 locus = experiment: Nascent RNA-seq of transcription at the ZNF532 locus in NMC cell lines; conditions: NMC cell lines 797 and 1015, in the presence of JQ1
Excerpt: Transcription is seen in two of the NMC cell lines, 797 and 1015, and is shown to diminish in the presence of JQ1.

24335 cells = experiment: Differentiation and proliferation of ZNF532-NUT+ 24335 NMC cells (involucrin/keratin expression, H&E); conditions: BET inhibitor treatment
Experimental: FIGS. 8A-8B describe experimental data showing differentiation of ZNF532-NUT+24335 cells in response to NUT knockdown or BET inhibitor.
(FIG. 10A) Immunoblot of involucrin expression, a marker of squamous differentiation. (FIG. 10B) H&E showing differentiation as evidenced by formation of cohesive spherical clusters, and marked accumulation of cytoplasm. (FIG. 10C) 500 nM JQ1 BET inhibitor was administered. Dose-response to JQ1 measured by cell titer glo. (FIG. 10D) Effects of ZNF532 and NUT knock down on number of mitoses quantified by immunohistochemistry using anti-histone H3phospho-serine antibody.
The importance of ZNF532 in NMC was underscored by simultaneous discovery of a patient with pulmonary NMC (FIG. 5A) harboring a ZNF532-NUT fusion gene, that was identified by whole transcriptome RNAsequencing (FIG. 5B), and confirmed by cytogenetics, fluorescence in situ hybridization (FISH), RT-PCR, western blotting, and immunofluorescence (FIGS. 5C-5F, 6). The fusion gene is comprised of exon 3 of ZNF532 fused to intron 1 of NUT (FIG. 7). The resulting predicted 1500 amino acid protein includes the N-terminal 778 amino acids of ZNF532, encoding only the first two of eleven zinc fingers and a large unstructured domain, part of intron 1 of NUT, and its remaining exons 2-7 (FIGS. 8A-8B). […]

Cc1sc2c(c1C)C(c1ccc(Cl)cc1)=N[C@@H](CC(=O)OC(C)(C)C)c1nnc(C)n1-2 [JQ1, (S)-tert-butyl 2-(4-(4-chlorophenyl)-2,3,9-trimethyl-6H-thieno[3,2-f][1,2,4]triazolo[4,3-a][1,4]diazepin-6-yl)acetate]
expression of the PVT1 RNA (PVT1 RNA): decreased expression | transcription at the ZNF532 locus (ZNF532 locus): diminish | differentiation of 24335 cells (expression of involucrin, marker of terminal squamous differentiation) (24335 cells): results in differentiation
